Here are results for six compounds from article PMC7534383, “Structure-activity relationship of 7-aryl-2-anilino-pyrrolopyrimidines as Mer and Axl tyrosine kinase inhibitors” (Journal of Enzyme Inhibition and Medicinal Chemistry, 2020).

Entries after “also recorded” stand apart in the source; their conditions may differ. Read-outs that look alike come from different tables or passages of the source.

In one experiment the test system is Mer. The note with it: Figure 1, known TAM kinase inhibitors; cited from earlier work.
The target in experiment [1] is T1, TYRO3 (Homo sapiens, UniProt Q06418).
T1 sequence (Q06418 41-890): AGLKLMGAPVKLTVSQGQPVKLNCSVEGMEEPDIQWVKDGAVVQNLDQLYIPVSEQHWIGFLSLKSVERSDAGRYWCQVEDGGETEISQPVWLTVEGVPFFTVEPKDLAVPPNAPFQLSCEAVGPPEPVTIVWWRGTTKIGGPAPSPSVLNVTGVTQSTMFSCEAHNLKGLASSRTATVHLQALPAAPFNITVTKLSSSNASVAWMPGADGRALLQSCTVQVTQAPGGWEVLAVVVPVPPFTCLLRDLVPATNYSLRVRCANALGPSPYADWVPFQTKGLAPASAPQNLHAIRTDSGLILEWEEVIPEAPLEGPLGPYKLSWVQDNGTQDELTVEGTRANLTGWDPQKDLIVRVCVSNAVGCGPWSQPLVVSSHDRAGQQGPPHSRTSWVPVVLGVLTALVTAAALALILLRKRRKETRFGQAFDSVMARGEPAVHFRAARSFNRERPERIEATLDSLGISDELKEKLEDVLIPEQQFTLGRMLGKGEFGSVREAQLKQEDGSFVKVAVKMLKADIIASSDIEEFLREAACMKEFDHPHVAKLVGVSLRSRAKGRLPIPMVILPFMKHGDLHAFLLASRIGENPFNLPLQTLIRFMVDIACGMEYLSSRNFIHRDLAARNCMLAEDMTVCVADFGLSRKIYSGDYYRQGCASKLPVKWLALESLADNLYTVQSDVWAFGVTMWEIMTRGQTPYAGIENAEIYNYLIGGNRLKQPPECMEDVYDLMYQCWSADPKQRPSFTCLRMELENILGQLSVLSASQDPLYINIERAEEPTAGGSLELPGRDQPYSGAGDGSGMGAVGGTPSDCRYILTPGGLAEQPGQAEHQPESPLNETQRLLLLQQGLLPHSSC
As to conditions: Figure 1, known TAM kinase inhibitors; cited from earlier work.

Another experiment has as its target T2, MERTK (Homo sapiens, UniProt Q12866).
T2 sequence (Q12866 21-999): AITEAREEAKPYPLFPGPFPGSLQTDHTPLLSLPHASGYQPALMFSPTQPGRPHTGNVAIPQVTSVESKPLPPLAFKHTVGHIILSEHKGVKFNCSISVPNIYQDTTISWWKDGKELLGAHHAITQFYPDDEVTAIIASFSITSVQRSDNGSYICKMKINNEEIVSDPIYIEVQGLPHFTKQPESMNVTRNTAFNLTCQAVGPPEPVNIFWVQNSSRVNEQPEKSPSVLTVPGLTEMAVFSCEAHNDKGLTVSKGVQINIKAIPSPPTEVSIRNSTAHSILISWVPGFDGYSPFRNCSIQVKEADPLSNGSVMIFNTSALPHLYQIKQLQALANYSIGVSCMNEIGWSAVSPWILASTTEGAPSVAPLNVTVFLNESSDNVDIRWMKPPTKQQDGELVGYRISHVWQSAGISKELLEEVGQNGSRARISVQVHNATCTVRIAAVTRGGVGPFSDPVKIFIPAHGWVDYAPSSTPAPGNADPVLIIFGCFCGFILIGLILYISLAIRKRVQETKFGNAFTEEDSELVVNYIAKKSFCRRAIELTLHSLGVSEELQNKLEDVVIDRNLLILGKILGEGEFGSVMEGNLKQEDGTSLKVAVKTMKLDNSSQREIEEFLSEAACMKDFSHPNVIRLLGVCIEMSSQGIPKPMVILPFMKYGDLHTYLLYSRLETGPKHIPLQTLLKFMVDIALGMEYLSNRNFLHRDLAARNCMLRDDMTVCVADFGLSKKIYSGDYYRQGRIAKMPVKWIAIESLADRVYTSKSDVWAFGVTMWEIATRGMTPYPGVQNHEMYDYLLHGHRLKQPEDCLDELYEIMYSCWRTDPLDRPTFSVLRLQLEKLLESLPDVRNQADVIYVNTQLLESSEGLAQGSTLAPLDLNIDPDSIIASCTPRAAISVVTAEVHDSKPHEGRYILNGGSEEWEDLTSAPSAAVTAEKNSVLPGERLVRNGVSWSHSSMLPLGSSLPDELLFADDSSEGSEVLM
The experiment in a line: Kinase assay at Km ATP (Eurofins Discovery), Mer. Format: biochemical. The note with it: Km ATP, read-out: IC50 (nM) MER. Here is the method:
(§1) All kinase assays were carried out at Km ATP by Eurofins Discovery's Kinase Screening and Profiling services (France).

A further experiment has as its target T3, AXL (Homo sapiens, UniProt P30530).
T3 sequence (P30530 26-894): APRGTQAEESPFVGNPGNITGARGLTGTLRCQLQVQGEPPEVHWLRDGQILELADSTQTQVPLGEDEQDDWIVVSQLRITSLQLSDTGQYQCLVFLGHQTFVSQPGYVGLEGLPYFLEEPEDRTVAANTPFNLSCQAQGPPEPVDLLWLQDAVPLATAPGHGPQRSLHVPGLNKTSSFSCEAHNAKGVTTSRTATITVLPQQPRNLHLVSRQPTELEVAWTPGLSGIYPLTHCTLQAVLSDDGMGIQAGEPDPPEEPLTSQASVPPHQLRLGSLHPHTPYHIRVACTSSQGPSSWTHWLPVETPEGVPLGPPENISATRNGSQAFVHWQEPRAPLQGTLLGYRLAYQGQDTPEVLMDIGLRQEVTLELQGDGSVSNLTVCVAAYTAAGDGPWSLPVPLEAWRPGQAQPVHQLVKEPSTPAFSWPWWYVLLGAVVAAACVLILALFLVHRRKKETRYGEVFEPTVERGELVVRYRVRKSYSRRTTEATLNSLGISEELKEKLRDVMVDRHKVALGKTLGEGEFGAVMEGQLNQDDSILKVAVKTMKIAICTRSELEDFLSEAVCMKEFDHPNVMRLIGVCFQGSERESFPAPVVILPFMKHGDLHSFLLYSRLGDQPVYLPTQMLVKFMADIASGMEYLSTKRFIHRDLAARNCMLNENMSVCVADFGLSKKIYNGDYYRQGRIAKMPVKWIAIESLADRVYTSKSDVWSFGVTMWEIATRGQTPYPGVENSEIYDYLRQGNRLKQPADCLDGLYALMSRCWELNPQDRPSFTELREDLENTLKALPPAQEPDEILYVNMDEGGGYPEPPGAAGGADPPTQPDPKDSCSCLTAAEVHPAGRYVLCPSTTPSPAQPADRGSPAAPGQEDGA
The experiment is described as follows: Kinase assay at Km ATP (Eurofins Discovery), Axl. It is filed as biochemical. As to conditions: Km ATP. As for the experimental part:
as §1

For experiment [2], the target named is T1, TYRO3. The experiment is described as follows: Kinase assay at Km ATP (Eurofins Discovery), Tyro3. It is filed as biochemical. As for the experimental part: as §1
The subject of experiment [3] is Mer phosphorylation in Mer-overexpressed human gastric cancer cell line MKN28. The experiment in a line: Western blot of Mer phosphorylation in MKN28 cells. Format: cell-based. The note with it: 0.5 and 0.1 μM, 1.5 h, UNC2025 positive control. As for the experimental part: MKN28 cells were obtained from the Korea Institute of Science and Technology (KIST). Cells were cultured in Roswell Park Memorial Institute (RPMI) 1640 medium containing 10% fetal bovine serum and 1% penicillin/streptomycin at 37 °C with 5% CO2 under a humidified atmosphere.
MKN 28 cells (500,000 cells/2 ml) were seeded in each well of 6-well plates and incubated for 24 h. Then, the cells were treated with 20 µL of DMSO stock solution of the corresponding compounds and incubated for a further 1.5 h. After that, the cells were washed with cold Dulbecco's Phosphate-Buffered Saline (DPBS) twice and lysed with RIPA buffer supplemented with protease inhibitor and phosphatase inhibitor cocktails on ice. Equal amounts of protein samples were boiled with 5× SDS-PAGE loading buffer and separated by 10% SDS-PAGE gels, then transferred onto polyvinylidene difluoride (PVDF) membranes. The membranes were blocked with 5% BSA in 1× TBST (1× TBS with 0.1% Tween-20) for 1 h and incubated at 4 °C overnight with a 1:1000 dilution of the following primary antibodies in blocking buffer: pMer (Tyr749 + 753 + 754, ab14921), Mer (CST, # 4319), and ß-actin (SC, # SC-47778). […]
Figure 3. […] Bar graph represents the relative intensities of the total and phosphorylated Mer as determined by band densitometry using image analysis software.

With `CCOc1ccn(-c2ccc(F)cc2)c(=O)c1C(=O)Nc1ccc(Oc2ccnc(N)c2Cl)c(F)c1` [BMS-777607], the figures for the half-inhibitory concentration (IC50) in the experiment on Mer and at TYRO3 [1] were 14 nM and 4 nM, respectively.
Consider `COc1ccc(-n2ccc3cnc(Nc4cc(OC)cc(N5CCC(N6CCCC6)CC5)c4)nc32)cc1` [Compound 27, N-(3-Methoxy-5–(4-(pyrrolidin-1-yl)piperidin-1-yl)phenyl)-7–(4-methoxyphenyl)-7H-pyrrolo[2,3-d]pyrimidin-2-amine], for which the IC50 at MERTK (Table 2) was 2 nM; at AXL (Table 2), 16 nM. The inhibition at 1 µM on TYRO3 [2] worked out at 40%. Besides, the “Inhibitory effect on Mer phosphorylation” value in experiment [3] is recorded as “better effect on blocking phosphorylation than UNC2025; also recorded: considerable inhibition for Mer phosphorylation in cells”.
Take `COc1cc(Nc2ncc3ccn(-c4ccccc4)c3n2)cc(N2CCC(N3CCCC3)CC2)c1` [Compound 34, N-(3-Methoxy-5–(4-(pyrrolidin-1-yl)piperidin-1-yl)phenyl)-7-phenyl-7H-pyrrolo[2,3-d]pyrimidin-2-amine]: the results for the IC50 at MERTK (Table 3) and against AXL (Table 3) were 17 nM and 48 nM, respectively. Also, the inhibition at 1 µM against TYRO3 [2] worked out at 35%.
The corresponding values for `COc1cc(Nc2ncc3ccn(-c4nccs4)c3n2)cc(N2CCC(N3CCCC3)CC2)c1` [Compound 35, N-(3-Methoxy-5–(4-(pyrrolidin-1-yl)piperidin-1-yl)phenyl)-7-(thiazol-2-yl)-7H-pyrrolo[2,3-d]pyrimidin-2-amine] are 64 nM, 247 nM and 16%.
For the compound `COc1cc(Nc2ncc3ccn([C@H]4CC[C@H](O)CC4)c3n2)cc(N2CCC(N3CCCC3)CC2)c1` [Compound 36, (1r,4r)-4–(2-((3-Methoxy-5–(4-(pyrrolidin-1-yl)piperidin-1-yl)phenyl)amino)-7H-pyrrolo[2,3-d]pyrimidin-7-yl)cyclohexanol], the IC50 was 484 nM at MERTK (Table 3) and 2020 nM on AXL (Table 3). Further, on TYRO3 [2] (Table 3, 1 µM, Km ATP), the “%Inhibition at 1 µM TYRO3” value worked out at 55%.
`CCCCNc1ncc2c(-c3ccc(CN4CCN(C)CC4)cc3)cn([C@H]3CC[C@H](O)CC3)c2n1` [UNC2025]: the IC50 in the experiment with Mer was […].

The term IC50 denotes the concentration that inhibits the measured activity by half. One may read the inhibition as the share of the control response that was lost under treatment. High values mean strong suppression, low ones little suppression. The term %Inhibition denotes the share of the control response that was lost under treatment. Low values mean a weak effect, high ones a strong effect.
